Assay results published in patent US20140142168A1, “METHODS AND PHARMACEUTICAL COMPOSITIONS FOR THE TREATMENT OF HORMONE-REFRACTORY PROSTATE CANCERS” (CENTRE JEAN PERRIN, priority 2011, published 2014).
Like-named read-outs stand apart in the source and are kept apart here.

Tests used:
[1] = Blood levels after administration; format: in vivo; conditions: human
Description: It was deduced from the investigator data that 1 h after administration of 75 mg/m2 of DTX, blood levels of DTX can reach 3.75 μM.

PC3 cells = assay: PC3 survival at end of treatment; format: cell-based, human; conditions: 2 h 3.75 μM DTX then 70 h drug-free medium, with or without 2 days of repeated 0.25 μM curcumin pretreatment
Description: The PC3 line is a human p-53 defective HRPC line displaying high SphK1 activity. To mimic the effect of treatment, 10,000 PC3 cells were seeded in each well of 24-well plates and maintained in DMEM containing 10% FBS (complete medium) overnight. […] Indeed, in these experiences PC3 cells were treated the first day for 2 h at 7 h AM and maintained in DFM until 12 h AM (5h). […] As previously, the cells were maintained in DFM for 70 h in DFM after DTX treatment.
PC3 survival was determined at the end of treatment 1 and 3. Telomerase activity was determined in survived cells by Trap assay at the end of treatment 1, 2 and 3.

patients with HRPC = conditions: docetaxel-treated patients, reference randomized study; cited from earlier work

| concentration at 1 h ([1]; blood, intravenous, 1 h after administration of 75 mg/m2, deduced from the investigator data, read-out: blood levels of DTX) | concentration at 1 h ([1]; in vivo) | SMILES | number of survived cells (PC3 cells) | PSA response (patients with HRPC) | objective tumor response (patients with HRPC) |
| --- | --- | --- | --- | --- | --- |
| 3750 nM | – | CC(=O)O[C@@]12CO[C@@H]1C[C@H](O)[C@@]1(C)C(=O)[C@H](O)C3=C(C)[C@@H](OC(=O)[C@H](O)[C@@H](NC(=O)OC(C)(C)C)c4ccccc4)C[C@@](O)([C@@H](OC(=O)c4ccccc4)[C@H]21)C3(C)C [Docetaxel, (2R,3S)-N-carboxy-3-phenylisoserine, N-tert-butyl ester, 13-ester with 5, 20-epoxy-1,2,4,7, 10, 13-hexahydroxytax-11-en-9-one 4-acetate 2-benzoate, trihydrate] | 90±5% | 45% | 12% |
| – | 100 to 450 nM | COc1cc(/C=C/C(=O)CC(=O)/C=C/c2ccc(O)c(OC)c2)ccc1O [curcumin, (1E,6E)-1,7-bis (4-hydroxy-3-methoxyphenyl)-1,6-heptadiene-3 ,5-dione] | – | – | – |
